How the values were obtained:
[1] = biological target: c-KIT (Homo sapiens, UniProt P10721); assay: Inhibition of c-KIT, TR-FRET; format: biochemical; settings: TR-FRET assay, 100 uM ATP, 0.13 nM c-Kit
[2] = biological target: T1, AIK (Homo sapiens, UniProt O14965); assay: Inhibition of AIK, Direct Fluorescence Polarization (IMAP); format: biochemical; settings: FP assay, 2.5 uM ATP, 2.5 nM AIK
T1 sequence (O14965 1-403): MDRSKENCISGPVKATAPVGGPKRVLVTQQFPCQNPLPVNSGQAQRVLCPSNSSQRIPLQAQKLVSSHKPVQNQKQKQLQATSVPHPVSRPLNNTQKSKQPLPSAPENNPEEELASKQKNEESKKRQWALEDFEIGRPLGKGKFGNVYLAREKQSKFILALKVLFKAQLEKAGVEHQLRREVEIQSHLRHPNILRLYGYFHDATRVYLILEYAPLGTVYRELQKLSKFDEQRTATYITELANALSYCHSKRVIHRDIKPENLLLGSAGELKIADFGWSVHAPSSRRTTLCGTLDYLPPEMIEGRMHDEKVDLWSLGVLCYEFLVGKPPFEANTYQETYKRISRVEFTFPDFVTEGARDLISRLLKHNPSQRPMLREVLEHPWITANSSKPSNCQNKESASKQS
Procedure: The inhibitory properties of compounds relative to AIK may be determined by the Direct Fluorescence Polarization detection method (FP) using a Greiner small volume black 384-well-plate format under the following reaction conditions: 50 mM Hepes pH 7.3, 10 mM MgCl2, 10 mM NaCl, 1 mM DTT, 0.01% Brij35, 100 nM Fluorescein-LRRASLG peptide (provided by SYNPEP), 5% DMSO, 2.5 uM ATP. Detection of the reaction product is performed by addition of IMAP binding reagent (Molecular Devices). Reaction product may be determined quantitatively by FP using an Analyst HT plate reader (Molecular Devices) with an excitation wavelength at 485 nm and emission at 530 nm and using a Fluorescein 505 dichroic mirror.
The assay reaction may be initiated as follows: 2 ul of (3×) 300 nM Fl-Peptide/7.5 uM ATP was added to each well of the plate, followed by the addition of 2 ul of (3×) inhibitor (2.5 fold serial dilutions for 11 data points for each inhibitor) containing 15% DMSO. 2 ul of (3×) 7.5 nM AIK solution may be added to initiate the reaction (final enzyme concentration was 2.5 nM for AIK). […] Fluorescence polarization readings of the resulting reaction mixtures may be measured after a 60-minute incubation at room temperature.
IC50 values may be calculated by non-linear curve fitting of the compound concentrations and fluorescent polarization values to the standard IC50 equation.

Sequence of c-KIT (P10721 26-976): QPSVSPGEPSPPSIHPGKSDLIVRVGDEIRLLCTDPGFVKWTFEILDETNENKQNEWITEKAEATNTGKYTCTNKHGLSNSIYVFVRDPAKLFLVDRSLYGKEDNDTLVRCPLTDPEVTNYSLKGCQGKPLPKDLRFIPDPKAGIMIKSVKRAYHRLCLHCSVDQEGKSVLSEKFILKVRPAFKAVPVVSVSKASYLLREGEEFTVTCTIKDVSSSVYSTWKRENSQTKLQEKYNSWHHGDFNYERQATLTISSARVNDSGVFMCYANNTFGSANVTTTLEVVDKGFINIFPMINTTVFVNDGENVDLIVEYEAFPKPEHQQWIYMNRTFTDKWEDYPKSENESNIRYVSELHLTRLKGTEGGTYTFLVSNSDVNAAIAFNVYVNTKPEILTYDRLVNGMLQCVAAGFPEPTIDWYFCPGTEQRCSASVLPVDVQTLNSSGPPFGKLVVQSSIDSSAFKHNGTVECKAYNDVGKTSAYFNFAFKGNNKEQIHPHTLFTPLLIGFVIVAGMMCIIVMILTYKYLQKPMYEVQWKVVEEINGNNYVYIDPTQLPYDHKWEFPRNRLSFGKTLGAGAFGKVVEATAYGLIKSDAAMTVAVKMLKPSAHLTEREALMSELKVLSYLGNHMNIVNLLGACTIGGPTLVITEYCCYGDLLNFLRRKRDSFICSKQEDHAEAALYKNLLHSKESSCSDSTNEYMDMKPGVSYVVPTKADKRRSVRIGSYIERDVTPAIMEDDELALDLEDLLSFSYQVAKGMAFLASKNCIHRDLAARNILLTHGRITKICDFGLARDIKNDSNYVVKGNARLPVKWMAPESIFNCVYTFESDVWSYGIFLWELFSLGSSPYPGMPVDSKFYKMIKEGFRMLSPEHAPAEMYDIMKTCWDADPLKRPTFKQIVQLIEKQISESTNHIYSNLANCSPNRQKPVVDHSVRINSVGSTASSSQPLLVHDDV

SMILES: Cc1cc(-c2c(O)[nH]c3ccccc23)nc(N)n1 [Example 1, 3-(2-Amino-6-methyl-pyrimidin-4-yl)-1H-indol-2-ol]
- IC50 [1]: < 100 µM
- IC50 [2]: < 100 µM
